Laboratory results published in patent US6924302B2, “Substituted triazole diamine derivatives as kinase inhibitors” (Ortho McNeil Pharmaceutical, Inc., priority 2000, dated 2005).
Where two headings read alike, the source gives them in different places.

Experiments:
Insulin Receptor Kinase = Insulin Receptor Kinase (Homo sapiens, UniProt P06213); experiment: Kinase Selectivity Assay Insulin Receptor Kinase; assay type: biochemical; details: Kinase Selectivity, Tables 2a-2k; read-out: Insulin R Kinase IC50
Procedure, shortened: (§1)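 Biotinylated peptide phosphorylation measured as ^33P-γ-ATP incorporation on streptavidin plates after 1 h at 30° C, 1% DMSO final, enzyme in 50 mM Tris-HCl pH 8.0, 0.1% BSA. Compounds in duplicate at 8 concentrations, 100 uM to 10 pM. IC50 from percent inhibition versus log concentration.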

Protein Kinase A = target: T1, Protein Kinase A (Bos taurus, UniProt P00517); experiment: Kinase Selectivity Assay Protein Kinase A; assay type: biochemical, bovine; details: Kinase Selectivity, Tables 2a-2k; read-out: PKA IC50
T1 construct: purified from bovine heart; purchased Upstate Biotech 14-114; host or cells: bovine heart
Procedure, shortened: as §1

[1] = target: T2, Casein Kinase 1 (CK1 delta isoform) (Rattus norvegicus, UniProt Q06486); experiment: Kinase Selectivity Assay Casein Kinase 1; assay type: biochemical; details: Tables 2a-2k, read-out: Caseine Kinase 1 IC50
T2 construct: a truncation at amino acid 318 of the C-terminal portion of the rat CK1 delta isoform; purchased New England Biolabs 6030; host or cells: E. coli
T2 sequence (Q06486 1-317): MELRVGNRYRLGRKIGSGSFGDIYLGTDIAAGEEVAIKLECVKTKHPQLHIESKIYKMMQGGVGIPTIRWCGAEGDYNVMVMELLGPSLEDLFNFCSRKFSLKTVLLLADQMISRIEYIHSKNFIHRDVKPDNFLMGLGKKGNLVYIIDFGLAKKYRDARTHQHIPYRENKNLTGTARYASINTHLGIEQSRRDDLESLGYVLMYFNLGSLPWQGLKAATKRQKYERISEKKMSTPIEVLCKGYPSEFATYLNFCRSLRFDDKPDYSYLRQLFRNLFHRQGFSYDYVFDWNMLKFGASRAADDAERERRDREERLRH
Protocol: (§2) Assays to test compound inhibition of other kinases were preformed using methods that measure the amount of phosphorylation of a biotinylated peptide substrate. Biotinylated peptide substrates were selected from the literature as appropriate for the enzyme being evaluated. […] Assay conditions vary slightly for each protein kinase, for example, insulin receptor kinase requires 10 mM MnCl2 for activity and Calmodulin-dependent protein kinase requires calmodulin and 10 mM CaCl2. These assay conditions are known in the art. The reaction mixture was dispensed into the wells of a streptavidin coated Flashplate and 1 μl drug stock in 100% DMSO was added to a 100 μl reaction volume resulting in a final concentration of 1% DMSO on the reaction. Enzyme was diluted in 50 mM Tris-HCl pH=8.0, 0.1% BSA and add to each well. The reaction was incubated for one hour at 30° C. in the presence of compound. After one hour the reaction mix was aspirated from the plate and the plate was washed with PBS containing 100 mM EDTA. The plate was read on a scintillation counter to determine ^33P-γ-ATP incorporated into the immobilized peptide. Test compounds were assayed in duplicate at 8 concentrations [100 uM, 10 uM, 1 uM, 100 nM, 10 nM, 1 nM, 100 pM, 10 pM]. A maximum and minimum signal for the assay was determined on each plate. The IC50 was calculated from the dose response curve of the percent inhibition of the maximum signal in the assay according to the formula [max signal—background/test compound signal—background (100)=% inhibition] by graphing the percent inhibition against the log concentration of test compound. Known inhibitor compounds appropriate for the kinase being assayed were also included on each plate.
CDK2 in complex with cyclin A is commercially available (Upstate Biotech, Lake Placid, N.Y.). The CDK4 complex was composed of a mouse CDK4 protein and a mouse Cyclin D1 protein (The mouse CDK4 protein was genetically fused to an N-terminal Flag-epitope tag and the mouse Cyclin D1 protein was fused with an N-terminal AU-1 epitope tag. The genes encoding these proteins were transferred to commercially available baculoviral vectors. The recombinant CDK4/D1 complex was then made by co-infecting commercially available insect cells with viruses carrying these two constructs). […] ERK-1 protein (Discontinued from Calbiochem). EGFR (epidermal growth factor receptor) is purified from human A431 cell membranes (Sigma, St. Louis, Mo., Cat.# E3641).

[2] = target: T3, Casein Kinase 2 (alpha and beta subunits) (Homo sapiens, UniProt P68400); experiment: Kinase Selectivity Assay Casein Kinase 2; assay type: biochemical; details: Kinase Selectivity, Tables 2a-2k; read-out: Caseine Kinase 2 IC50
T3 construct: purchased New England Biolabs 6010; host or cells: E. coli
Procedure, shortened: as §1

[3] = target: T4, Calmodulin Kinase (calmodulin-dependent protein kinase 2) (Rattus norvegicus, UniProt P11275); experiment: Kinase Selectivity Assay Calmodulin Kinase; assay type: biochemical; details: Kinase Selectivity, Tables 2a-2k; read-out: Calmodulin Kinase 2 IC50
T4 construct: a truncated version of the alpha subunit of the rat protein; purchased New England Biolabs 6060; host or cells: insect cells
Procedure, shortened: as §1

[4] = target: T5, Glycogen Synthase Kinase-3 (beta isoform) (Oryctolagus cuniculus, UniProt G1T8E2); experiment: Kinase Selectivity Assay Glycogen Synthase Kinase-3; assay type: biochemical, rabbit; details: Kinase Selectivity, Tables 2a-2k; read-out: GSK-3 IC50
T5 construct: purchased New England Biolabs 6040; host or cells: E. coli
Procedure, shortened: as §1

[5] = target: T6, MAP Kinase (ERK-2 isoform) (Rattus norvegicus, UniProt P63086); experiment: Kinase Selectivity Assay MAP Kinase (ERK-2); assay type: biochemical; details: Kinase Selectivity, Tables 2a-2k; read-out: ERK 2 IC50
T6 construct: polyhistidine (N); host or cells: E. coli
Procedure, shortened: as §1

[6] = target: T7, PDGF-R (platelet derived growth factor receptor) beta subunit kinase domain (Homo sapiens, UniProt P09619); experiment: Kinase Selectivity Assay PDGF-R; assay type: biochemical; details: Kinase Selectivity, Tables 2a-2k; read-out: PDGF-R kinase IC50
T7 construct: nucleotides 1874-3507 of the human PDGF-R beta subunit kinase domain; polyhistidine (N)
Procedure, shortened: as §1

[7] = target: T8, HER2 (human epidermal growth factor receptor-2) (Homo sapiens, UniProt P04626); experiment: Kinase Selectivity Assay HER2; assay type: biochemical
T8 construct: begins at amino acid 676 followed by the remainder of the HER2 cytoplasmic domain; polyhistidine (N)
Procedure, shortened: as §1

[8] = test system: HeLa cervical adenocarcinoma; experiment: Inhibition of Cell Proliferation (14C-thymidine incorporation), HeLa; assay type: cell-based; details: Homo sapiens, HeLa cell line
Protocol: (§3) The ability of a test compound to inhibit the proliferation of cell growth was determined by measuring incorporation of ^14C-labelled thymidine into newly synthesized DNA within the cells. This method was used on cell lines derived from carcinomas originating from several tissues such as HeLa cervical adenocarcinoma (American Type Culture Collection (ATCC), Virginia, Cat. #CCL-2), A375 malignant melanoma (ATCC CRL-1619), SK-OV-3 ovarian adenocarcinoma (ATCC HTB-77) HCT-116 colon carcinoma (CCL-247), PC-3 prostate adenocarcinoma (ATCC CRL-1435), and MDA-MB-231 (Xenogen Corp.) In this way the effect of a compound on cell growth of cells with many different phenotypes can be determined. Cells were trypsinized and counted and 3000-8000 cells were added to each well of a 96-well CytoStar tissue culture treated scintillating microplate (Amersham #RPNQ0160) in complete medium in a volume of 100 μl. Cells were incubated for 24 hours in complete medium at 37° C. in an atmosphere containing 5% CO2. Next, 1 μl of test compound in 100% DMSO was added to the wells of the plate. DMSO only was added to control wells. Cells were incubated for 24 more hours in complete medium at 37° C. in an atmosphere containing 5% CO2. Methyl ^14C-thymidine 56 mCi/mmol (NEN #NEC568 or Amersham #CFA532) was diluted in complete medium and 0.2 uCi/well was added to each well of the CytoStar plate in a volume of 20 μl. The plate was incubated for 24 hours at 37° C. plus 5% CO2 in drug plus ^14C-thymidine. The contents of the plate were discarded into a ^14C radioactive waste container by inverting the plate and the plate was washed twice with 200 μl PBS. 200 μl of PBS is added to each well. The top of the plate was sealed with a transparent plate sealer and a white plate backing sealer (Packard #6005199) was applied to the bottom of the plate. The degree of methyl ^14C-thymidine incorporation was quantified on a Packard Top Count.

A375 malignant melanoma = experiment: Inhibition of Cell Proliferation (14C-thymidine incorporation), A375; assay type: cell-based; details: Homo sapiens, A-375, A375 cell line
Protocol: as §3

HCT-116 colon carcinoma = experiment: Inhibition of Cell Proliferation (14C-thymidine incorporation), HCT-116; assay type: cell-based; details: Homo sapiens, HCT-116 cell line
Protocol: as §3

[9] = test system: PC-3 prostate adenocarcinoma; experiment: Inhibition of Cell Proliferation (14C-thymidine incorporation), PC-3; assay type: cell-based; details: Homo sapiens, PC-3 cell line
Protocol: as §3

FGF-R2 = FGF-R2 (Homo sapiens, UniProt P21802); experiment: Kinase Selectivity Assay FGF-R2; assay type: biochemical; details: Tables 2a-2k
Protocol: as §2

[10] = target: T9, VEGF-R (vascular endothelial growth factor receptor-2) (Rattus norvegicus, UniProt O08775); experiment: VEGF-R Screening Assay; assay type: biochemical; details: read-out: VEGF-R IC50
T9 construct: polyhistidine (6xHIS) (N)

[11] = target: PKC (protein kinase-C), gamma or beta isoform; experiment: Kinase Selectivity Assay PKC; assay type: biochemical, human; details: Tables 2a-2k
Protocol: as §2
CDK2 in complex with cyclin A is commercially available (Upstate Biotech, Lake Placid, N.Y.). […]

[12] = target: T10, CDK2 in complex with cyclin A (Homo sapiens, UniProt P24941); experiment: Kinase Selectivity Assay CDK2; assay type: biochemical; details: Table 1
T10 construct: purchased Upstate Biotech
Procedure, shortened: as §1

[13] = Kinase Selectivity, Tables 2a-2k, read-out: HER2 Kinase IC50

T7 sequence (P09619 564-1106): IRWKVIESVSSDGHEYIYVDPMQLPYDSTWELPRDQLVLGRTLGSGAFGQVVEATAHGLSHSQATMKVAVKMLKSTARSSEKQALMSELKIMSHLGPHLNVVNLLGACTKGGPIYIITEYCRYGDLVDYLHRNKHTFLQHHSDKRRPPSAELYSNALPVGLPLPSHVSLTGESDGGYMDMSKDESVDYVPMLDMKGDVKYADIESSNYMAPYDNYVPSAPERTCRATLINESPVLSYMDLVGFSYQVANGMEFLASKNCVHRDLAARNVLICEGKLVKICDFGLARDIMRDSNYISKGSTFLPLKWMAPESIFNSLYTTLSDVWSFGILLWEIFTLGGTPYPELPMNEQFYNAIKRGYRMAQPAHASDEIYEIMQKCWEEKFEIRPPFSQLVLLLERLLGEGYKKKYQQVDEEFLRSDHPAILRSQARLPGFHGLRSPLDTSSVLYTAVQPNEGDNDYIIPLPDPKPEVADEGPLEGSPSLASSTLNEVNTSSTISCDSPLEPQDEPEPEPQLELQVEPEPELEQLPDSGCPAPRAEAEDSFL
T8 sequence (P04626 676-1255 limits assumed): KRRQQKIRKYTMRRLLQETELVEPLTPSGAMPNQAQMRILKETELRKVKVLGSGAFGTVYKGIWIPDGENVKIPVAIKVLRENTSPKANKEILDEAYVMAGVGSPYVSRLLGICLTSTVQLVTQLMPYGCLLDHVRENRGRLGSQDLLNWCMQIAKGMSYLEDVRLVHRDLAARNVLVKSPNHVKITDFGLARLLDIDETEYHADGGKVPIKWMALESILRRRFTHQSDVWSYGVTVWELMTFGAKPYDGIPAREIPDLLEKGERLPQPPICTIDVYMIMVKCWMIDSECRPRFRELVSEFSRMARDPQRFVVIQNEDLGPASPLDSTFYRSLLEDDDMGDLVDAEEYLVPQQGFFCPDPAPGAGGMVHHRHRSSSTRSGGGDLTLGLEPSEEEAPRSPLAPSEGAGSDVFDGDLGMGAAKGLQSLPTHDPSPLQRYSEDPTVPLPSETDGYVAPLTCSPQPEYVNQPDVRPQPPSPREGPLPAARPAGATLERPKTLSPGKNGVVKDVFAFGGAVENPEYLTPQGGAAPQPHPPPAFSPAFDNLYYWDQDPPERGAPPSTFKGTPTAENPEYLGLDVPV
T3 sequence (P68400 whole entry): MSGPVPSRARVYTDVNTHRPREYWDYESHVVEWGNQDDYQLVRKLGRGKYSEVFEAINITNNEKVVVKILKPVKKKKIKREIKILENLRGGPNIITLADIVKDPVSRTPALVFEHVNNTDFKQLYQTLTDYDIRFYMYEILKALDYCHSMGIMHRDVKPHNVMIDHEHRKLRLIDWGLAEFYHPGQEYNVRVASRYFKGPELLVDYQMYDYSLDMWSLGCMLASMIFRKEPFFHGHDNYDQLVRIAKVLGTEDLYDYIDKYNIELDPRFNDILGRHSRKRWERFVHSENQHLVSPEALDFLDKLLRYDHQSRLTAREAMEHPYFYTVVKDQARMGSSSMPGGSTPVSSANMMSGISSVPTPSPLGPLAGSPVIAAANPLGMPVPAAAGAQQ
T3 sequence (P67870 whole entry partner): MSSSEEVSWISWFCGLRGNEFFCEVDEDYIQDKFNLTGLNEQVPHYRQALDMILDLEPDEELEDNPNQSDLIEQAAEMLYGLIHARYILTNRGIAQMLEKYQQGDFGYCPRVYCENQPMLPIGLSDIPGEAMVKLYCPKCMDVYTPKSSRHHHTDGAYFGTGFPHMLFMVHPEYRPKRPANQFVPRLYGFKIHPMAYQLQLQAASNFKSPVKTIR
T6 sequence (P63086 whole entry, canonical isoform): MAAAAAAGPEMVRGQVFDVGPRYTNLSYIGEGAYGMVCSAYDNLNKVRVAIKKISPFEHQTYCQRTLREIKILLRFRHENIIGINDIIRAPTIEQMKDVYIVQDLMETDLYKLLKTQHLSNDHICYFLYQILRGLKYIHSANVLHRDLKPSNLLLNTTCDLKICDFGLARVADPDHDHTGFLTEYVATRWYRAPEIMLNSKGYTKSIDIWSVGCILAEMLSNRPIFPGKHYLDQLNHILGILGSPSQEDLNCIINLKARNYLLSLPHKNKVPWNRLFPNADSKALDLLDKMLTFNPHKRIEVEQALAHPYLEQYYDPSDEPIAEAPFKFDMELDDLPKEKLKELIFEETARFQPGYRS
T5 sequence (G1T8E2 1-432): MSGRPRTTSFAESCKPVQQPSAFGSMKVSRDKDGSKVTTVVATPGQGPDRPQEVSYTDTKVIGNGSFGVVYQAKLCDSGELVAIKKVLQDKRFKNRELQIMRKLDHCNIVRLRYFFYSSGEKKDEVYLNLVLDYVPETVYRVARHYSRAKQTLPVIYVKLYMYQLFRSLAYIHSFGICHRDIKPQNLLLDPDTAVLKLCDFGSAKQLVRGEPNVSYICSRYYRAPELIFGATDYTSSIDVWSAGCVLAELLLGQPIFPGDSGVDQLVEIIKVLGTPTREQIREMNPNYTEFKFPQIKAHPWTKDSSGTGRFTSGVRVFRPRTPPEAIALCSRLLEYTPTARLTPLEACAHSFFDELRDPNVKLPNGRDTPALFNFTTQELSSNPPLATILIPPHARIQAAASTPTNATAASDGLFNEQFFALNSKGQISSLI
Sequence of Insulin Receptor Kinase (P06213 980-1352): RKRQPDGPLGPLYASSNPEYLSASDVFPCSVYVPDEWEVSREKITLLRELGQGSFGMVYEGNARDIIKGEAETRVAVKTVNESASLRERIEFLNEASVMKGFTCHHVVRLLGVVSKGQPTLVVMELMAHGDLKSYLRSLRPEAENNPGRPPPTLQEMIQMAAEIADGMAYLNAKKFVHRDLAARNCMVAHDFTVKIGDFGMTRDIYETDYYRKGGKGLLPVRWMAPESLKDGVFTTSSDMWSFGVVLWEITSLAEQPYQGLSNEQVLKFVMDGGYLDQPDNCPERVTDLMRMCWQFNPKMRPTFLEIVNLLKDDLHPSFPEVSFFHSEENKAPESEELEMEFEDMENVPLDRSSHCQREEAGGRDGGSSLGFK
Sequence of FGF-R2 (P21802 22-821, species assumed): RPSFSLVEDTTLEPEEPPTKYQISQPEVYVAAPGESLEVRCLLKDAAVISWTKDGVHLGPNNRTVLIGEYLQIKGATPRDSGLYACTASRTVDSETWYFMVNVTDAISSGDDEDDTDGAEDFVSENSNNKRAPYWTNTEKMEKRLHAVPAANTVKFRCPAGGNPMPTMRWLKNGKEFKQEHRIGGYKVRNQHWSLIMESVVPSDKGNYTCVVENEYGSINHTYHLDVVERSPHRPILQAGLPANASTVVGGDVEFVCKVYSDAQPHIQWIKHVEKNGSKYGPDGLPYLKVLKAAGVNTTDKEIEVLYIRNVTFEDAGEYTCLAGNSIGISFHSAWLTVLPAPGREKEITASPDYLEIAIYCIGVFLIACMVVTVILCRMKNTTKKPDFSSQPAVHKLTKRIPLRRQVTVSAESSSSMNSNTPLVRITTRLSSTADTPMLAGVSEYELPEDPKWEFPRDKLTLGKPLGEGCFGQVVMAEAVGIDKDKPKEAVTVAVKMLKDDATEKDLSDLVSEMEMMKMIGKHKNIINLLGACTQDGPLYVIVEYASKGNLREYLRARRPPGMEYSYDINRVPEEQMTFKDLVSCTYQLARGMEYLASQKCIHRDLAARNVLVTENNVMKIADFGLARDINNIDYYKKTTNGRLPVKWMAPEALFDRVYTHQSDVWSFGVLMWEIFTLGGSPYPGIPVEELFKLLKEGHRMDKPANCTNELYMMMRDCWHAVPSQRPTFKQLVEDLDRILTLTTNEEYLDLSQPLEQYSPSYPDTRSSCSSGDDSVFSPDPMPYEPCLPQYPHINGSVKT
T9 sequence (O08775 786-1343): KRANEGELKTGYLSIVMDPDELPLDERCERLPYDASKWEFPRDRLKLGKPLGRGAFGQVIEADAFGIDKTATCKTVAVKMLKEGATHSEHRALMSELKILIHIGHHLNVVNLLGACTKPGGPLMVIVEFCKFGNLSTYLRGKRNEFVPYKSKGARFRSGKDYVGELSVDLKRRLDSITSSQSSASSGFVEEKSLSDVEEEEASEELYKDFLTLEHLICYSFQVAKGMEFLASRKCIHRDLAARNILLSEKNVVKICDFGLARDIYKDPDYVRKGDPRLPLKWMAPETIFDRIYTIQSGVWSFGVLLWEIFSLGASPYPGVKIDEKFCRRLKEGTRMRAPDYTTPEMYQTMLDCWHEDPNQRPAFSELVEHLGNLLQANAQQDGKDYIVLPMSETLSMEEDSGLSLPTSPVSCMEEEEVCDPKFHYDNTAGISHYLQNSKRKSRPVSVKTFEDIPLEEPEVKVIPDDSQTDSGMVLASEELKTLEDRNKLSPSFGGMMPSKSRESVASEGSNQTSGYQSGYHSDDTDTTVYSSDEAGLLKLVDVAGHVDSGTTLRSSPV

SMILES	IC50 (Insulin Receptor Kinase) [nM]	IC50 (Protein Kinase A) [nM]	IC50 [1] [nM]	IC50 [2] [nM]	IC50 [3] [nM]	IC50 [4] [nM]	IC50 [5] [nM]	IC50 [6] [nM]	IC50 [7, 13] [nM]	IC50 ([7]; Table 1, read-out: HER2 IC50) [nM]	IC50 [8] [nM]	IC50 (A375 malignant melanoma) [nM]	IC50 (HCT-116 colon carcinoma) [nM]	IC50 [9] [nM]	IC50 (FGF-R2) [nM]	IC50 ([10]; Kinase Selectivity, Tables 2a-2k) [nM]	IC50 ([10]; Table 1) [nM]	IC50 [11] [nM]	IC50 [12] [nM]
CNS(=O)(=O)c1ccc(Nc2nc(N)n(C(=O)c3sc(C)cc3C)n2)cc1 [Cpd 83, 4-[[5-amino-1-[(3,5-dimethyl-2-thienyl)carbonyl]-1H-1,2,4-triazol-3-yl]amino]-N-methyl-benzenesulfonamide]	> 10000	> 100000	275	> 100000	> 100000	7	> 100000	113	13	13	122	556	192	12	22	–	–	–	–
Cc1cc(C)c(C(=O)n2nc(Nc3ccc(-n4ccnc4)cc3)nc2N)s1 [Cpd 92, 1-[(3,5-dimethyl-2-thienyl)carbonyl]-N^3-[4-(1H-imidazol-1-yl)phenyl]-1H-1,2,4-triazole-3,5-diamine]	3080	> 100000	> 10000	> 100000	19700	21	> 100000	282	–	–	269	–	–	1120	242	–	–	–	–
Cc1ccsc1C(=O)n1nc(Nc2ccc(-n3cncn3)cc2)nc1N [Cpd 99, 1-[(3-methyl-2-thienyl)carbonyl]-N^3-[4-(1H-1,2,4-triazol-1-yl)phenyl]-1H-1,2,4-triazole-3,5-diamine]	> 100000	–	> 1000	> 100000	> 100000	30	> 100000	385	–	–	3350	–	–	1690	–	98	98	> 100000	–
Cc1ccsc1C(=O)n1nc(Nc2ccc(NS(C)(=O)=O)cc2)nc1N [Cpd 109]	2760	> 100000	1180	> 10000	> 100000	39	> 10000	413	–	–	479	–	51	307	244	–	–	–	21
CCc1ccc(C(=O)n2nc(Nc3ccc(NS(C)(=O)=O)cc3)nc2N)s1 [Cpd 110]	53	> 100000	192	> 5000	> 100000	8	8750	285	6	5.5	237	239	187	–	153	–	–	–	5
CCc1ccc(C(=O)n2nc(Nc3ccc(S(=O)(=O)Nc4ccccn4)cc3)nc2N)s1 [Cpd 119]	–	> 100000	757	> 100000	> 100000	6	> 100000	> 10000	1000	~1000	–	–	–	–	–	–	–	> 100000	3
